Reference: patent US20240207258A1, “HETEROCYCLIC PDK1 INHIBITORS FOR USE TO TREAT CANCER” (Viracta Therapeutics, Inc., priority 2015, published 2024)

What was measured:
[1] = target: T1, Full-length phosphorylated PDK1 (Homo sapiens, UniProt O15530); assay: Fluorescence polarization PIF-tide binding assay; conditions: PDK1 saturating amounts of compound, FIG. 13C
T1 sequence (O15530 1-556): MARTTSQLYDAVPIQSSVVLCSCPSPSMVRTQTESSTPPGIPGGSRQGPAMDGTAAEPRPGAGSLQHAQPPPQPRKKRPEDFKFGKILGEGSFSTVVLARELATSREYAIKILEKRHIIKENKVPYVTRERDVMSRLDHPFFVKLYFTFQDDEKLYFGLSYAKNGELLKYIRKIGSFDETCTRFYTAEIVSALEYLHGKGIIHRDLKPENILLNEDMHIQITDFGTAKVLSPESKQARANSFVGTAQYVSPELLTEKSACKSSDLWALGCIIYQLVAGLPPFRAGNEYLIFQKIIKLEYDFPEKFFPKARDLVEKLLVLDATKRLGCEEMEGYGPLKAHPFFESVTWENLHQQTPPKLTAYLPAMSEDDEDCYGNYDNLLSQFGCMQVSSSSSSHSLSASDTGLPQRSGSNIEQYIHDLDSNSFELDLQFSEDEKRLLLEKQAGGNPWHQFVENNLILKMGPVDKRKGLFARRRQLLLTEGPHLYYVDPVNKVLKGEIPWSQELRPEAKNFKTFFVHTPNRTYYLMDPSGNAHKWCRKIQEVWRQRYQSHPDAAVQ

Molm-13 = assay: MTS cell proliferation assay, Molm-13; assay type: cell-based; conditions: Homo sapiens; Molm-13, 72 hr
Procedure: (§1) Cell proliferation was measured using the CellTiter 96 Aqueous Non-Radioactive Cell Proliferation Assay (Promega). The CellTiter 96® AQueous Assay is composed of solutions of a tetrazolium compound [3-(4,5-dimethylthiazol-2-yl)-5-(3-carboxymethoxyphenyl)-2-(4-sulfophenyl)-2H-tetrazolium, inner salt; MTS] and an electron coupling reagent (phenazine methosulfate) PMS. MTS is bioreduced by cells into a formazan product that is soluble in tissue culture medium. The absorbance of the formazan product at 490 nm can be measured directly from assay plates without additional processing. The quantity of formazan product as measured by the amount of 490 nm absorbance is directly proportional to the number of living cells in culture. Cells were seeded into 96-well or 384-well clear plates in a volume of 200 μL (96-well) or 50 μL (384-well) at optimized densities ranging from 1,000 to 40,000 cells per well for 96-well plates or 1,200 to 25,000 cells per well for 384-well plates depending on cell-line. After 4-6 hr recovery, serially diluted compounds in DMSO were added to the cells using (0.1% v/v final DMSO concentration). Cells were then grown at 37° C. in a humidified incubator with 5% CO2 for 72 hr. A 20:1 [3-(4,5-dimethylthiazol-2-yl)-5-(3-carboxymethoxyphenyl)-2-(4-sulfophenyl)-2H-tetrazolium](MTS):phenazine methosulfate (PMS) solution in DPBS was made immediately before use, added to each well, and cells were incubated for 1.5 hr at 37° C. The absorbance at 490 nm was then measured using a platereader. Absorbance values were normalized as percent of control (cells incubated in the presence of 0.1% v/v DMSO). Sigmoidal dose-response curves were plotted using log(inhibitor) vs. response—Variable slope (four parameters) model with a top value constrained to 100% (GraphPad Prism version 6.00 for Windows, GraphPad Software, La Jolla California USA). […] Curves for compounds that reached a plateau were matched exactly to the measurement points. […] To determine potential of compounds of the invention to affect viability of hematological cancers, cell lines representing various tumor types were selected and tested. Human cell lines tested were: MOLM-13 (acute myeloid leukemia (AML)), MV4-11 (AML), U-2932 (ABC-diffuse large B cell lymphoma), U-937 (histiocytic lymphoma), U-266 (multiple myeloma), RPMI-8226 (multiple myeloma), CMK (megakaryoblastic cell line), SU-DHL-4 (GCB-diffuse large B cell lymphoma), KG1 (AML), Mec-1 (chronic B-cell leukemia), MOLM-16 (AML), Jeko (B-cell lymphoma), WSU-DLCL2 (B-cell lymphoma), JJN3 (plasma cell leukemia), SU-DHL-6 (GCB-diffuse large B cell lymphoma), and Z-138 (mantle cell lymphoma). In addition, two murine cell lines were tested: A20 […].

MV4-11 = assay: MTS cell proliferation assay, MV4-11; assay type: cell-based, human; conditions: Homo sapiens; MV4-11, 72 hr; read-out: MTS proliferation assay
Procedure: Cell proliferation was measured using the CellTiter 96 Aqueous Non-Radioactive Cell Proliferation Assay (Promega). […] MTS is bioreduced by cells into a formazan product that is soluble in tissue culture medium. The absorbance of the formazan product at 490 nm can be measured directly from assay plates without additional processing. The quantity of formazan product as measured by the amount of 490 nm absorbance is directly proportional to the number of living cells in culture. Cells were seeded into 96-well or 384-well clear plates in a volume of 200 μL (96-well) or 50 μL (384-well) at optimized densities ranging from 1,000 to 40,000 cells per well for 96-well plates or 1,200 to 25,000 cells per well for 384-well plates depending on cell-line. After 4-6 hr recovery, serially diluted compounds in DMSO were added to the cells using (0.1% v/v final DMSO concentration). Cells were then grown at 37° C. in a humidified incubator with 5% CO2 for 72 hr. A 20:1 [3-(4,5-dimethylthiazol-2-yl)-5-(3-carboxymethoxyphenyl)-2-(4-sulfophenyl)-2H-tetrazolium](MTS):phenazine methosulfate (PMS) solution in DPBS was made immediately before use, added to each well, and cells were incubated for 1.5 hr at 37° C. The absorbance at 490 nm was then measured using a platereader. Absorbance values were normalized as percent of control (cells incubated in the presence of 0.1% v/v DMSO). Sigmoidal dose-response curves were plotted using log(inhibitor) vs. response—Variable slope (four parameters) model with a top value constrained to 100% (GraphPad Prism version 6.00 for Windows, GraphPad Software, La Jolla California USA). […] To determine potential of compounds of the invention to affect viability of hematological cancers, cell lines representing various tumor types were selected and tested. […] In addition, two murine cell lines were tested: A20 […].

U-2932 = assay: MTS cell proliferation assay, U-2932; assay type: cell-based; conditions: Homo sapiens, U2932; U-2932, 72 hr
Procedure: as §1

U-937 = assay: MTS cell proliferation assay, U-937; assay type: cell-based; conditions: Homo sapiens; U-937, 72 hr
Procedure: (§2) Cell proliferation was measured using the CellTiter 96 Aqueous Non-Radioactive Cell Proliferation Assay (Promega). The CellTiter 96® AQueous Assay is composed of solutions of a tetrazolium compound [3-(4,5-dimethylthiazol-2-yl)-5-(3-carboxymethoxyphenyl)-2-(4-sulfophenyl)-2H-tetrazolium, inner salt; MTS] and an electron coupling reagent (phenazine methosulfate) PMS. MTS is bioreduced by cells into a formazan product that is soluble in tissue culture medium. The absorbance of the formazan product at 490 nm can be measured directly from assay plates without additional processing. The quantity of formazan product as measured by the amount of 490 nm absorbance is directly proportional to the number of living cells in culture. Cells were seeded into 96-well or 384-well clear plates in a volume of 200 μL (96-well) or 50 μL (384-well) at optimized densities ranging from 1,000 to 40,000 cells per well for 96-well plates or 1,200 to 25,000 cells per well for 384-well plates depending on cell-line. After 4-6 hr recovery, serially diluted compounds in DMSO were added to the cells using (0.1% v/v final DMSO concentration). Cells were then grown at 37° C. in a humidified incubator with 5% CO2 for 72 hr. A 20:1 [3-(4,5-dimethylthiazol-2-yl)-5-(3-carboxymethoxyphenyl)-2-(4-sulfophenyl)-2H-tetrazolium](MTS):phenazine methosulfate (PMS) solution in DPBS was made immediately before use, added to each well, and cells were incubated for 1.5 hr at 37° C. The absorbance at 490 nm was then measured using a platereader. Absorbance values were normalized as percent of control (cells incubated in the presence of 0.1% v/v DMSO). Sigmoidal dose-response curves were plotted using log(inhibitor) vs. response—Variable slope (four parameters) model with a top value constrained to 100% (GraphPad Prism version 6.00 for Windows, GraphPad Software, La Jolla California USA). […] Curves for compounds that reached a plateau were matched exactly to the measurement points. […]

U-266 = assay: MTS cell proliferation assay, U-266; assay type: cell-based; conditions: Homo sapiens; U-266, 72 hr
Procedure: as §2

RPMI-8226 = assay: MTS cell proliferation assay, RPMI-8226; assay type: cell-based; conditions: Homo sapiens; RPMI-8226, 72 hr
Procedure: as §1

CMK = assay: MTS cell proliferation assay, CMK; assay type: cell-based; conditions: Homo sapiens, 72 hr
Procedure: as §2

SU-DHL-4 = assay: MTS cell proliferation assay, SU-DHL-4; assay type: cell-based; conditions: Homo sapiens; SU-DHL-4, 72 hr
Procedure: as §2

KG1 = assay: MTS cell proliferation assay, KG1; assay type: cell-based; conditions: Homo sapiens, KG-1; KG1, 72 hr
Procedure: as §2

Mec-1 = assay: MTS cell proliferation assay, Mec-1; assay type: cell-based; conditions: Homo sapiens, MEC1; Mec-1, 72 hr
Procedure: as §2

MOLM-16 = assay: MTS cell proliferation assay, MOLM-16; assay type: cell-based; conditions: Homo sapiens, MOLM16; MOLM-16, 72 hr
Procedure: as §2

Jeko = assay: MTS cell proliferation assay, Jeko; assay type: cell-based; conditions: Homo sapiens, 72 hr
Procedure: as §1

WSU-DLCL2 = assay: MTS cell proliferation assay, WSU-DLCL2; assay type: cell-based; conditions: Homo sapiens, WSUDLCL2; WSU-DLCL2, 72 hr
Procedure: as §2

JJN3 = assay: MTS cell proliferation assay, JJN3; assay type: cell-based; conditions: Homo sapiens, JJN-3; JJN3, 72 hr
Procedure: as §2

SU-DHL-6 = assay: MTS cell proliferation assay, SU-DHL-6; assay type: cell-based; conditions: Homo sapiens; SU-DHL-6, 72 hr
Procedure: as §2

Z-138 = assay: MTS cell proliferation assay, Z-138; assay type: cell-based; conditions: Homo sapiens; Z-138, 72 hr
Procedure: as §2

[2] = test system: hematologic tumor cell lines; assay: MTS cell proliferation assay, panel of hematologic cancer cell lines; assay type: cell-based; conditions: range against the various cell lines of Table 1; read-out: inhibition of cell proliferation EC50
Procedure: as §1

EC50 (Molm-13)	EC50 (MV4-11)	EC50 (U-937)	EC50 (RPMI-8226)	EC50 (SU-DHL-4)	EC50 (MOLM-16)	EC50 (SU-DHL-6)	EC50 [2]	Compound	PIF-tide binding to PDK1 (fluorescence polarization, words) [1]	EC50 (U-2932)	EC50 (U-266)	EC50 (CMK)	EC50 (KG1)	EC50 (Mec-1)	EC50 (Jeko)	EC50 (WSU-DLCL2)	EC50 (JJN3)	EC50 (Z-138)
–	–	–	–	–	–	–	–	O=C(NCCCNc1nc(Nc2cccc(NC(=O)N3CCCC3)c2)ncc1I)c1cccs1 [BX-795, reference compound]	no interference with PIF-tide binding	–	–	–	–	–	–	–	–	–
0.005 µM	0.012 µM	0.111 µM	0.201 µM	0.411 µM	0.291 µM	0.458 µM	0.003 to 0.853 µM	C[C@H](NC(=O)c1nc(C#N)cnc1NCc1ccc(-c2cnc3[nH]nc(N)c3c2)cc1)c1ccc(F)c(F)c1 [Compound 3, 3-[4-(3-Amino-1H-pyrazolo[3,4-b]pyridin-5-yl)-benzylamino]-6-cyano-pyrazine-2-carboxylic acid [1-(3,4-difluoro-phenyl)-ethyl]-amide]	significant inhibition of PIF-tide binding	0.115 µM	0.145 µM	0.278 µM	0.193 µM	0.403 µM	0.249 µM	0.474 µM	0.853 µM	0.754 µM
